Test results taken from patent US11339193B2, “CDP protein secretion inhibitors” (KEZAR LIFE SCIENCES, priority 2018, dated 2022).
Numbered stars: 1 amine (or outer) side, 2 acyl side, 3 side chain; on linkers, the order of the positions; unused ones are H or OH. Square brackets hold non-standard residues; d marks the D form. Peptide text beside a SMILES is read from it. Butanoyl(2R-oxy,4-CN) = N#CCC[C@@H](O)C(=O)O; X22 = CCCC[C@@H](C)C[C@H](N[*:1])C(=O)[*:2]; Abu(4,4,4-F3) = N[C@@H](CC(F)(F)F)C(=O)O; X12 = O=C([C@H](CC1=CCCC1)N[*:1])[*:2]; Ala(cPent) = N[C@@H](CC1CCCC1)C(=O)O; NMeCha = CN[C@@H](CC1CCCCC1)C(=O)O; NMeF = CN[C@@H](Cc1ccccc1)C(=O)O; tBuAla = CC(C)(C)C[C@H](N)C(=O)O; NMeL = CN[C@@H](CC(C)C)C(=O)O; NMeA = CN[C@@H](C)C(=O)O; Nle = CCCC[C@H](N)C(=O)O; dLac = C[C@@H](O)C(=O)O; Abu = CC[C@H](N)C(=O)O

Columns and labels:
Assay type in all cases: cell-based
[1] = system: NCI-H929 multiple myeloma cell line; assay: H929 assay (cell viability, Celltiter-Glo); conditions: Homo sapiens, NCI-H929; 48 hours, cell viability; read-out: H929 EC50
Protocol: The human multiple myeloma cell line NCI-H929 was cultured in Advanced RPMI 1640 media (Gibco@) supplemented with 6% fetal bovine serum, 2 mM Glutamine, and 1× Penicillin/Streptomycin. On the day of assay, cells were resuspended in RPMI 1640 media supplemented with 10% fetal bovine serum, 2 mM Glutamine, and 1× Penicillin/Streptmycin and plated in 384-well tissue culture plates and treated with compound dilutions in DMSO/media. Plates were incubated at 37° C., 5% CO2 for 48 hours. After 48 hours, Celltiter-Glo@ (Promega) was added to each well and luciferase signal was quantified using Tecan Infinite M1000 Pro for cell viability determination.

[2] = system: TNFα-FL/Gaussia Luciferase; assay: Dox induced TNFα-FL-Gluc assay; conditions: Flp-In 293 T-REx cells, doxycycline, 24 hours; read-out: TNFa FL Gluc IC50
Text: Dox Induced TNFα-FL-Gluc Assay
(§1) Flp-In 293 T-REx™ cells were transfected with pcDNA™5/FRT/TO plasmid inserted with cDNA encoding Gaussia Luciferase fused to the 3′ end of cDNA encoding full length TNFα (amino acids 1-233). Transfected cells were selected for resistance to the selectable markers Hygromycin and Blasticidin to create a stable cell line that contained the TNFα-FL/Gaussia Luciferase cDNA insert whose expression was regulated under the T-REx™ system. The day before assay, cells were trypsinized and plated in 384-well tissue culture plates. The next day, compound dilutions in DMSO/media containing doxycycline were added to the wells and incubated at 37° C., 5% CO2.

[3] = system: PD1-ss+10aa/Gaussia Luciferase; assay: Dox induced PD1-ss-Gluc assay; conditions: Flp-In 293 T-REx cells, doxycycline, 24 hours; read-out: PD1ss Gluc IC50
Text: Dox Induced PD1-ss-Gluc Assay
as §1, with “PD1 signal sequence plus 10 amino” for “full length TNFα (amino”, “(N-[…]-C) (SEQ ID NO:3).” for “1-233).”, “PD1-ss+10aa/Gaussia” for “TNFα-FL/Gaussia”

EC50 [1] [nM] | IC50 [2] [nM] | IC50 [3] [nM] | SMILES
5860 | 1560 | 495 | CCCC[C@@H](C)C[C@@H]1NC(=O)[C@H](CC2CCCCC2)N(C)C(=O)[C@H](CC(C)C)NC(=O)[C@H](CC(C)C)N(C)C(=O)[C@H](CCCC)NC(=O)[C@@H](CCC#N)OC(=O)[C@H](C)N(C)C1=O [C-53] (cyclo(L[NMeCha][X22][NMeA][Butanoyl(2R-oxy,4-CN)][Nle][NMeL]))
1190 | 115 | 75 | CCCC[C@@H](C)C[C@@H]1NC(=O)[C@H](Cc2ccccc2)N(C)C(=O)[C@H](CC)NC(=O)[C@H](CC(C)C)N(C)C(=O)[C@H](C[C@H](C)CCCC)NC(=O)[C@@H](C)OC(=O)[C@H](C)N(C)C1=O [C-05] (cyclo([Abu][NMeF][X22][NMeA][dLac][X22][NMeL]))
5300 | 1680 | 432 | CCCC[C@@H](C)C[C@@H]1NC(=O)[C@H](CC2CCCCC2)N(C)C(=O)[C@H](CC(C)C)NC(=O)[C@H](CC(C)C)N(C)C(=O)[C@H](C(C)C)NC(=O)[C@@H](CCC#N)OC(=O)[C@H](C)N(C)C1=O [C-20] (cyclo(L[NMeCha][X22][NMeA][Butanoyl(2R-oxy,4-CN)]V[NMeL]))
3400 | 716 | 212 | CCCC[C@@H](C)C[C@@H]1NC(=O)[C@H](CC2CCCCC2)N(C)C(=O)[C@H](CC(C)C)NC(=O)[C@H](CC(C)C)N(C)C(=O)[C@H](CC(C)C)NC(=O)[C@@H](CCC#N)OC(=O)[C@H](C)N(C)C1=O [C-21] (cyclo(L[NMeCha][X22][NMeA][Butanoyl(2R-oxy,4-CN)]L[NMeL]))
429 | 84 | 37 | CCCC[C@@H](C)C[C@@H]1NC(=O)[C@H](CC2CCCCC2)N(C)C(=O)[C@H](CC(C)C)NC(=O)[C@H](CC(C)C)N(C)C(=O)[C@H](C[C@H](C)CCCC)NC(=O)[C@@H](CCC#N)OC(=O)[C@H](C)N(C)C1=O [C-18] (cyclo(L[NMeCha][X22][NMeA][Butanoyl(2R-oxy,4-CN)][X22][NMeL]))
6960 | 1130 | 367 | CCCC[C@@H](C)C[C@@H]1NC(=O)[C@H](CC2CCCCC2)N(C)C(=O)[C@H](CC(C)C)NC(=O)[C@H](CC(C)C)N(C)C(=O)[C@H](CC2CCCC2)NC(=O)[C@@H](CCC#N)OC(=O)[C@H](C)N(C)C1=O [C-47] (cyclo([Ala(cPent)][NMeL]L[NMeCha][X22][NMeA][Butanoyl(2R-oxy,4-CN)]))
1010 | 92 | 59 | CCCC[C@@H](C)C[C@@H]1NC(=O)[C@@H](CCC#N)OC(=O)[C@H](C)N(C)C(=O)[C@H](CC(F)(F)F)NC(=O)[C@H](Cc2ccccc2)N(C)C(=O)[C@H](CC(C)C)NC(=O)[C@H](CC(C)C)N(C)C1=O [C-26] (cyclo(L[NMeF][Abu(4,4,4-F3)][NMeA][Butanoyl(2R-oxy,4-CN)][X22][NMeL]))
1870 | 464 | 119 | CCCC[C@@H](C)C[C@@H]1NC(=O)[C@H](CC2CCCCC2)N(C)C(=O)[C@H](CC(C)C)NC(=O)[C@H](CC(C)C)N(C)C(=O)[C@H](CC2=CCCC2)NC(=O)[C@@H](CCC#N)OC(=O)[C@H](C)N(C)C1=O [C-55] (cyclo(L[NMeCha][X22][NMeA][Butanoyl(2R-oxy,4-CN)][X12][NMeL]))
4460 | 526 | 360 | CCCC[C@@H](C)C[C@@H]1NC(=O)[C@H](Cc2ccccc2)N(C)C(=O)[C@H](CC(C)C)NC(=O)[C@H](CC(C)C)N(C)C(=O)[C@H](CC(C)C)NC(=O)[C@@H](C)OC(=O)[C@H](C)N(C)C1=O [C-08] (HELM PEPTIDE1{L.[meF].[CCCC[C@@H](C)C[C@H](N[*:1])C(=O)[*:2]].[meA].[C[C@@H](O[*:1])C(=O)[*:2]].L.[meL]}$PEPTIDE1,PEPTIDE1,1:R1-7:R2$$$V2.0)
5550 | 1260 | 656 | CCCC[C@@H](C)C[C@@H]1NC(=O)[C@H](Cc2ccccc2)N(C)C(=O)[C@H](CC(C)C)NC(=O)[C@H](CC(C)C)N(C)C(=O)[C@H](C(C)C)NC(=O)[C@@H](C)OC(=O)[C@H](C)N(C)C1=O [C-07] (HELM PEPTIDE1{L.[meF].[CCCC[C@@H](C)C[C@H](N[*:1])C(=O)[*:2]].[meA].[C[C@@H](O[*:1])C(=O)[*:2]].V.[meL]}$PEPTIDE1,PEPTIDE1,1:R1-7:R2$$$V2.0)
1820 | 158 | 114 | CCCC[C@@H](C)C[C@@H]1NC(=O)[C@H](Cc2ccccc2)N(C)C(=O)[C@H](CC(C)C)NC(=O)[C@H](CC(C)C)N(C)C(=O)[C@H](CC(F)(F)F)NC(=O)[C@@H](CCC#N)OC(=O)[C@H](C)N(C)C1=O [C-09] (cyclo(L[NMeF][X22][NMeA][Butanoyl(2R-oxy,4-CN)][Abu(4,4,4-F3)][NMeL]))
– | – | 2140 | CCCC[C@@H](C)C[C@@H]1NC(=O)[C@H](CC2CCCCC2)N(C)C(=O)[C@H](CC2CCCC2)NC(=O)[C@H](CC(C)C)N(C)C(=O)[C@H](CC(C)C)NC(=O)[C@@H](CCC#N)OC(=O)[C@H](C)N(C)C1=O [C-54] (cyclo([Ala(cPent)][NMeCha][X22][NMeA][Butanoyl(2R-oxy,4-CN)]L[NMeL]))
– | – | 3050 | CCCC[C@@H](C)C[C@@H]1NC(=O)[C@H](CC2CCCCC2)N(C)C(=O)[C@H](CC(C)(C)C)NC(=O)[C@H](CC(C)C)N(C)C(=O)[C@H](CC(C)C)NC(=O)[C@@H](CCC#N)OC(=O)[C@H](C)N(C)C1=O [C-63] (cyclo(L[NMeL][tBuAla][NMeCha][X22][NMeA][Butanoyl(2R-oxy,4-CN)]))
6710 | – | – | CCCC[C@@H](C)C[C@@H]1NC(=O)[C@H](Cc2ccccc2)N(C)C(=O)[C@H](CC(C)C)NC(=O)[C@H](CC(C)C)N(C)C(=O)[C@H](CC)NC(=O)[C@@H](C)OC(=O)[C@H](C)N(C)C1=O [C-06] (HELM PEPTIDE1{[Abu].[meL].L.[meF].[CCCC[C@@H](C)C[C@H](N[*:1])C(=O)[*:2]].[meA].[C[C@@H](O[*:1])C(=O)[*:2]]}$PEPTIDE1,PEPTIDE1,1:R1-7:R2$$$V2.0)
– | 5730 | 751 | CCCC[C@@H](C)C[C@@H]1NC(=O)[C@H](CC2CCCCC2)N(C)C(=O)[C@H](CC(C)C)NC(=O)[C@H](CC(C)C)N(C)C(=O)[C@H](CC(C)(C)C)NC(=O)C(CCC#N)OC(=O)[C@H](C)N(C)C1=O (stereo in doubt) [C-52]
11200 | – | 1060 | CC(C)C[C@@H]1NC(=O)[C@H](Cc2nc(C(C)(C)C)cs2)N(C)C(=O)[C@H](CC(C)C)NC(=O)[C@H](CC(C)C)N(C)C(=O)[C@H](CC(C)C)NC(=O)[C@@H](CCC#N)OC(=O)[C@H](C)N(C)C1=O [C-68] (HELM PEPTIDE1{L.[meA].[N#CCC[C@@H](O[*:1])C(=O)[*:2]].L.[meL].L.[CN([C@@H](Cc1nc(C(C)(C)C)cs1)C(=O)[*:2])[*:1]]}$PEPTIDE1,PEPTIDE1,1:R1-7:R2$$$V2.0)

SMILES | EC50 [1] [nM] | IC50 [2] [nM] | IC50 [3] [nM]
CCCC[C@@H](C)C[C@@H]1NC(=O)[C@H](CC2CCCCC2)N(C)C(=O)[C@H](CC(C)C)NC(=O)[C@H](CC(C)C)N(C)C(=O)[C@H]([C@@H](C)CC)NC(=O)[C@@H](CCC#N)OC(=O)[C@H](C)N(C)C1=O [C-61] (cyclo(I[NMeL]L[NMeCha][X22][NMeA][Butanoyl(2R-oxy,4-CN)])) | 4560 | 1890 | 392
